Measurements: patent US9084779B2, “Conjugates of nitroimidazoles and their use as chemotherapeutic agents” (The Johns Hopkins University, priority 2011, dated 2015)
In brackets after ≈: the same amount, converted by molar mass.

Key:
[1] = tested on: 786-0 human renal adenocarcinoma cells; test: MTT cell viability assay, 3 days; type: cell-based; details: normoxic conditions, 1% DMSO
Description: (§1) Additional cell culture, drug treatment and cell viability assays. HT29 human colorectal carcinoma cells, 786-0 human renal adenocarcinoma cells and Hep3B human hepatocellular carcinoma cells were obtained from ATCC and maintained in culture according to their recommendations. […] After the treatment period viability of the cells was determined with the MTT cell viability assay and dose response curves were generated using the calculated values of the percentage viable cells relative to the vehicle control.

[2] = tested on: HT29 human colorectal carcinoma cells; test: MTT cell viability assay, 3 days; type: cell-based; details: normoxic conditions, 1% DMSO
Description: as §1

[3] = tested on: Hep3B human hepatocellular carcinoma cells; test: MTT cell viability assay, 3 days; type: cell-based; details: normoxic conditions, 1% DMSO
Description: as §1

[4] = tested on: HT29 human colorectal carcinoma cells; test: Cell viability by plating efficiency (colony formation after replating); type: cell-based; details: 40 μM, 48 h, diluted 10,000 fold and replated, colonies stained eight days later
Description: FIG. 6 depicts the plating efficiency of HT29 human colorectal carcinoma cells after treatment with DMSO, 40μ M3n and 40μ M3N-PEG-2NI. HT29 cells were treated for 48 h with 40 μM M3N, 40 μM M3N-PEG-2NI or the DMSO vehicle. At the end of the treatment period, the cells were diluted 10,000 fold and replated. Eight days later colonies were stained with methylene blue.
For the further assessment of cell viability by plating efficiency, cells (2×10^6 cells/100 mm dish) from the human colorectal carcinoma cell line HT29 were treated for 48 hours with 40 μM M3N, 40 μM M3N-PEG-2NI or the DMSO vehicle. At the end of the treatment period, the cells from each dish were released by trypsinization, diluted 10,000 fold and replated into new 100 mm dishes. Eight days later colonies were stained with 0.25% methylene blue in 50% ethanol

[5] = tested on: LNCaP human prostate cancer cells; test: Western blot analysis of 2-nitroimidazole induced protein adducts in cell culture; type: cell-based; details: 80 μM, 6 hours normoxic then 6 hours hypoxic or normoxic
Description: Western blot analysis of 2-nitroimidazole induced protein adducts in LNCaP cell cultures. Exponentially growing LNCaP human prostate cancer cells were treated with DMSO, 80 μM M3N-PEG-2NI or Hypoxyprobe-1 in standard media for 6 hours under normoxic conditions and then under hypoxic or normoxic conditions for additional 6 hours. Afterward the media was aspirated, the cells washed and ice cold RIPA lysis buffer was added and the cells lysed on ice for 15 minutes. The samples were centrifuged and the lysate collected. Cellular proteins in the extracts were analyzed for the presence of protein adducts using standard western blotting technique. The primary antibody was PAb2627 polyclonal antibody (1:200) directed against Hydroxyprobe-1 protein adducts. The secondary antibody was Anti-Rabbit HRP conjugate (1:2000). Detection was by chemiluminescence

[6] = tested on: subcutaneous LNCaP prostate cancer cell explants; test: Immunofluorescence analysis of 2-nitroimidazole induced protein adducts in mouse tumor explants; type: in vivo, nude mice; details: daily intravenous tail vein injection for three weeks
Description: Immunofluorescence analysis of 2-nitroimidazole induced protein adducts in mouse tumor explants. Nude mice with subcutaneous LNCaP prostate cancer cell explants were administered Hydroxyprobe-1, M3N or M3N-PEG-2NI for three weeks by daily intravenous tail vein injection with an additional injection 3 hours prior to euthanization. Tumors were removed from the euthanized mice by dissection and incubated in 30% sucrose/PBS overnight at 4° C. Excess sucrose was removed and the tissue was incubated in 30% sucrose/PBS:OCT (1:1) for 1 hour at room temperature. Afterward the tissue was frozen in 100% OCT. Frozen sections of […] were prepared and fixed in 4% PFA/PBS for 1 hour at room temperature. The sections were blocked overnight at 4° C. with 5% goat serum/PBS or at room temperature for 1 hour and then incubated with Hydroxyprobe-1 rabbit antiserum (1:200) overnight at 4° C. After three washes with PBS, the secondary antibody, mouse anti rabbit-FITC (1:1000) was added for 1 hour at room temperature. The sections were mounted using Vectashield and fluorescently imaged.

[7] = tested on: Hep3B human hepatocellular carcinoma cells; test: Hypoxia targeting assay, 5-h exposure then 5 days growth, MTS; type: cell-based; details: for Ratio IC50 (N)/IC50 (H): normoxic versus hypoxic
Description: Hypoxia targeting assay. Hep3B cells, plated in 96-well plates at a density of 3.0×10^3 cells/well, were incubated overnight and then treated with the test compounds for 5.0 hours at under hypoxic (1% O2) or normoxic (21% O2) conditions. Exposure of cells to hypoxia was carried out in a PROOX C-Chamber with O2 and CO2 levels modulated by a PROOX Model C21 Controller (BioSpherix). At the end of the treatment period, the wells were washed with phosphate buffered saline (PBS) and fresh compound-free media was added. The cells were cultured for an additional 5 days under normoxic conditions and then assayed for cell proliferation using the MTS assay.
Hypoxia targeting. Nitroimidazoles are converted to reactive compounds in hypoxic cells. Therefore it is of importance to compare the antiproliferative activities of the nitroimidazole conjugated compounds against Hep3B cells under normoxic and hypoxic conditions. In these experiments, Hep3B cells in culture were treated with each of the conjugated compounds 7c-d, 10c-d, or the parent compounds 3 or 8 for a 5.0-hour period under normoxic (21% O2) or hypoxic (1.0% O2) conditions. After treatment, the cells were returned to normal conditions and assayed for proliferation after 5 days of additional growth. […] The ratio between the IC50 values for each drug under normoxic versus hypoxic culture conditions was computed and used as a measure of the relative increase in potency.

[8] = Determination of water solubility by UV absorbance of a saturated solution; type: physicochemical; details: for Increment (solubility): PEG tether compound in comparison with the —CH2CH2— tether compound of the same pair (7c/7a, 7d/7b, 10c/10a, 10d/10b); for solubility at 1 h: thermodynamic from solid, water, saturated solution, sonicated at 25° C., stirred at room temperature 1.0 h, filtered
Description: The aqueous solubility of all eight compounds was assessed by using a technique involving measurement of their UV absorbance^29.
Determination of Water Solubility of Compounds 7a-d and 10a-d. A saturated solution was prepared by addition of a test compound (7a-d and 10a-d; ca. 1.00 mg) to water (1.00 mL), which was sonicated at 25° C. for 5.0 min and stirring at room temperature for an additional 1.0 h. After filtration with Millipore filters (0.45-μm-pore-size polyvinylidene fluoride), the supernatant was analyzed by UV spectroscopy with concentration determined from absorbance, standardized against calibration data. Standard curves for each compound were obtained by plotting absorbance against concentration. The concentration range of the standard solutions was 1.0-10 μg/mL. For all standards, their curves were linear with γ>0.996.

[9] = tested on: Hep3B human hepatocellular carcinoma cells; test: MTS tetrazolium cell proliferation assay, 72-h exposure; type: cell-based; details: normoxic (21% O2), read-out: IC50 Normoxic (N)
From the text: Anti-proliferative assay. The human hepatocellular carcinoma cell line Hep3B was purchased from American Type culture Collection (ATCC, Manassas, Va.). Dulbecco's Modified Eagle Medium (DMEM) and penicillin/streptomycin (P/S) were obtained from GIBCO Invitrogen. Fetal Bovine serum (FBS) was obtained from Thermo Scientific Hyclone. Dimethyl sulfoxide (DMSO-Hybri-Max) was purchased from Sigma-Aldrich Co. and the CellTiter 96 AQueous One Solution Cell Proliferation Assay (MTS) was acquired from Promega Corp. Hep3B cells were maintained in DMEM supplemented with 10% FBS and 1× P/S solution. Cultures were incubated at 37° C. in a 5% CO2 atmosphere with 99% humidity. Stock solutions of test compounds were prepared in DMSO for use in the cell culture viability assays.
MTS tetrazolium cell proliferation assay. The viability of Hep3B cells exposed to the synthesized compounds was determined by the MTS assay. Briefly, Hep3B cells were plated in 96-well plates at a density of 3.0×10^3 cells/well and incubated for 24-h before treatment. At the initiation of treatment, the growth media was replaced with 200 μL of media containing increasing concentrations of the test compounds in triplicate wells. The final DMSO concentration in the media was 1.0% including the media added to the control wells minus the test compound. After a 72-hour incubation, 40 μL of MTS solution was added to each well and the plates were incubated for an additional 3.0 hours. The plates were then read at 490 nm on a Biotek Instruments PowerWave 200 microplate reader. For each experiment the percent growth inhibition relative to the control (no drug addition) was calculated and a dose inhibition curve was generated. The concentration of drug required to inhibit cell growth by 50% (IC50) compared to the control cells was then determined by non-linear regression using PSI-Plot software (Poly Software International).
Antiproliferative activity. The anti-cancer activities of the parent compounds 3 and 8 and the conjugated compounds 7a-d and 10a-d were tested against Hep3B human hepatocellular carcinoma cells in culture.

[10] = hypoxic (1.0% O2), then 5 days normoxic growth, read-out: IC50 Hypoxic (H)
[11] = Homo sapiens, hypoxic (1.0% O2), then 5 days normoxic growth, read-out: IC50 Hypoxic (H)
[12] = Homo sapiens, normoxic (21% O2), then 5 days growth, read-out: IC50 Normoxic (N)

Increment (solubility) [8] [fold]	solubility at 1 h [8] [µg/mL]	IC50 [9] [µM]	Molecule	Ratio IC50 (N)/IC50 (H) [7]	further results
–	–	–	tri-O-methyl NDGA [Compound M3N, reference compound]	–	IC50 [1]: 36 to 64 µM; IC50 [2]: > 80 µM; IC50 [3]: 15 to 30 µM; Ability of HT29 cells to replicate after treatment (plating efficiency) [4]: able to replicate after treatment; Protein adducts by western blot (PAb2627 antibody) [5]: No protein adducts were detected; Protein adducts in tumor sections by immunofluorescence [6]: little evidence of adduct formation
–	–	–	COc1ccc(CC(C)C(C)Cc2ccc(OC)c(OC)c2)cc1O (stereo not drawn) [Compound 8, trimethyl NDGA, reference compound]	1.28	IC50 [7, 10]: 87.6 ± 8.7 µM
–	–	–	COc1ccc(CC(C)C(C)Cc2ccc(OC)c(OC)c2)cc1O (stereo not drawn) [Compound 3, trimethyl NDGA, reference compound]	1.58	IC50 [7, 10]: 99 ± 0.6 µM
10.5	1.76 (≈ 3.64 µM)	15.8 ± 1.6	COc1ccc(C[C@H](C)[C@H](C)Cc2ccc(OC)c(OCCn3cnc([N+](=O)[O-])c3)c2)cc1OC (racemic) [Compound 7a, (±)-(2R,3S)-4-(3,4-Dimethoxyphenyl)-1-[4-methoxy-3-[2-(4-nitro-1H-imidazol-1-yl)ethoxy]phenyl]-2,3-dimethylbutane]	–	–
6.5	1.63 (≈ 3.37 µM)	18.7 ± 4.1	COc1ccc(C[C@H](C)[C@H](C)Cc2ccc(OCCn3cnc([N+](=O)[O-])c3)c(OC)c2)cc1OC (racemic) [Compound 10a, (±)-(2R,3S)-4-(3,4-Dimethoxyphenyl)-1-[3-methoxy-4-[2-(4-nitro-1H-imidazol-1-yl)ethoxy]phenyl]-2,3-dimethylbutane]	–	–
11.2	1.7 (≈ 3.52 µM)	24.8 ± 8.7	COc1ccc(C[C@H](C)[C@H](C)Cc2ccc(OCCn3ccnc3[N+](=O)[O-])c(OC)c2)cc1OC (racemic) [Compound 10b, (±)-(2R,3S)-4-(3,4-Dimethoxyphenyl)-1-[3-methoxy-4-[2-(2-nitro-1H-imidazol-1-yl)ethoxy]phenyl]-2,3-dimethylbutane]	–	–
8.1	1.64 (≈ 3.39 µM)	21.8 ± 4.5	COc1ccc(C[C@H](C)[C@H](C)Cc2ccc(OC)c(OCCn3ccnc3[N+](=O)[O-])c2)cc1OC (racemic) [Compound 7b, (±)-(2R,3S)-4-(3,4-Dimethoxyphenyl)-1-[4-methoxy-3-[2-(2-nitro-1H-imidazol-1-yl)ethoxy]phenyl]-2,3-dimethylbutane]	–	–
–	–	–	Cl.O=[N+]([O-])c1nccn1CC(O)CN1CCCCC1 (stereo not drawn) [Hydroxyprobe-1]	–	Protein adducts by western blot (PAb2627 antibody) [5]: showed evidence of protein adducts; Protein adducts in tumor sections by immunofluorescence [6]: Protein-adducts were also found
–	10.5 (≈ 17.1 µM)	12.5 ± 4.1	COc1ccc(C[C@H](C)[C@H](C)Cc2ccc(OCCOCCOCCOCCn3cnc([N+](=O)[O-])c3)c(OC)c2)cc1OC (racemic) [Compound 10c, (±)-(2R,3S)-4-(3,4-Dimethoxyphenyl)-1-[3-methoxy-4-[12-(4-nitro-1H-imidazol-1-yl)-1,4,7,10-tetraoxadodecanyl]phenyl]-2,3-dimethylbutane]	2.69	IC50 [7, 11]: 52.1 ± 3.8 µM; IC50 [7, 12]: 140 ± 33.5 µM
–	18.5 (≈ 30.1 µM)	13 ± 5.1	COc1ccc(C[C@H](C)[C@H](C)Cc2ccc(OC)c(OCCOCCOCCOCCn3cnc([N+](=O)[O-])c3)c2)cc1OC (racemic) [Compound 7c, (±)-(2R,3S)-4-(3,4-Dimethoxyphenyl)-1-[4-methoxy-3-[12-(4-nitro-1H-imidazol-1-yl)-1,4,7,10-tetraoxadodecanyl]phenyl]-2,3-dimethylbutane]	1.62	IC50 [7, 11]: 64.3 ± 15.1 µM; IC50 [7, 12]: 104 ± 17.6 µM
–	19.1 (≈ 31.1 µM)	13.4 ± 3.4	COc1ccc(C[C@H](C)[C@H](C)Cc2ccc(OCCOCCOCCOCCn3ccnc3[N+](=O)[O-])c(OC)c2)cc1OC (racemic) [Compound 10d, (±)-(2R,3S)-4-(3,4-Dimethoxyphenyl)-1-[3-methoxy-4-[12-(2-nitro-1H-imidazol-1-yl)-1,4,7,10-tetraoxadodecanyl]phenyl]-2,3-dimethylbutane]	2.42	IC50 [7, 11]: 49.1 ± 4.9 µM; IC50 [7, 12]: 119 ± 42.8 µM
